Read-outs that look alike come from different tables or passages of the source.
Experiments:
[1] = test system: EBV early protein EA-D; conditions: for EA-D expression (immunoblot) / level of hyperphosphorylated form of EA-D (top band): 24 hours after induction; for viral reactivation assessed by expression of EA-D, in words: concentration not stated at the place (Fig. 2: 1 and 10μM)
[2] = test system: Epstein-Barr virus (EBV); conditions: for IC50: IgG induction, 0.0005-30μM, EBV genomes by qPCR
[3] = in vitro; conditions: human
[4] = test system: Akata cells
[5] = molecular target: T1, EBV-encoded protein kinase (EBV-PK, BGLF4) (Epstein-Barr virus, UniProt P13288); experiment: In vitro kinase assay of GST-BGLF4; assay type: biochemical; conditions: 10μM inhibitor, MBP substrate, 50μM ATP, filter binding
T1 sequence (P13288 1-429): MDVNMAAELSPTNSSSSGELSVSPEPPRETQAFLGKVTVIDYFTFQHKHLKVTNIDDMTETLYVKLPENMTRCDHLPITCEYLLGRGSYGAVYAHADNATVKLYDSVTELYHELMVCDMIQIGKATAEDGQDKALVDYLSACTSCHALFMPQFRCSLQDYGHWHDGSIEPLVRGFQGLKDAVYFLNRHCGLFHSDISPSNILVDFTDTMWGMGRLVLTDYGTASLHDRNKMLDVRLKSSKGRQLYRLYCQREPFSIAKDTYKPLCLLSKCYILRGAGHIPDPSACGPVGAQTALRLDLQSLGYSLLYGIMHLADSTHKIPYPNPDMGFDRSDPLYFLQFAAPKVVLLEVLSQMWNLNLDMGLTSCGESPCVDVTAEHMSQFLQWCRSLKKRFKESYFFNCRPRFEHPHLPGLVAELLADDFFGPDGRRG

[6] = test system: Epstein-Barr virus (EBV); experiment: microbe, parasite or virus in culture; conditions: human gammaherpesvirus 4, Akata, 48 h
[7] = Cell viability of Akata cells, modified MTS assay; conditions: human, latently EBV-infected Akata cells
[8] = test system: EBV; conditions: ref Gershburg et al., 2004; Wang et al., 2009; Zacny et al., 1999; cited from earlier work
[9] = test system: purified EBV-PK; conditions: ref Gershburg et al., 2004; Marschall et al., 2002; cited from earlier work
[10] = test system: human cytomegalovirus (HCMV) pUL97 protein kinase; conditions: 2002, cited from earlier work
[11] = test system: Akata cells; experiment: Cell viability of Akata cells, modified MTS assay; conditions: Akata cells, 48 hours, 0.0005-30μM, modified MTS assay
[12] = 10μM PKI, Akata cells, 48 hours after IgG induction

Nc1ncnc2c1c(I)cn2[C@@H]1O[C@H](CO)[C@@H](O)[C@H]1O [5-Iodotubercidin]
EA-D expression (immunoblot) ([1]; 1μM PKI, Fig. 2B): did not affect the expression of EA-D
effect on EBV replication in words [2, 12]: effective in inhibiting the EBV replication
IC50 ([2]; Akata cells, 48 hours): 890 nM

Nc1nc2c(ncn2COCCO)c(=O)[nH]1 [ACV, acyclovir]
viability at 48 h, 50 μM [3]: 89 ± 4%
reduction of viral replication relative to DMSO treatment ([2]; 50μM ACV, Akata cells, 48 hours after IgG induction): 88±6%

Cc1ccc(S(=O)(=O)/C=C/C#N)cc1 [BAY 11-7082]
CC50 [4]: 2640 nM
EA-D expression (immunoblot) ([1]; 1μM PKI, Fig. 2B): intermediate
level of hyperphosphorylated form of EA-D (top band) ([1]; 1μM PKI, Fig. 2B): more pronounced effect on the levels of the hyperphosphorylated form of EA-D
expression levels of housekeeping genes (β-actin) ([1]; 10μM, Fig. 2A): loss of β-actin
effect on EBV replication in words ([2]; 10μM PKI, Akata cells, 48 hours after IgG induction, listed as BAY-11-7082): effective in inhibiting the EBV replication
effect on EBV replication in words ([2]; 10μM PKI, Akata cells, 48 hours after IgG induction, listed as Bay 11-7082): inhibited viral replication
IC50 ([2]; Akata cells, 48 hours): 208 nM

COC(=O)/C=C/c1cc(O)ccc1O [Erbstatin analog]
EA-D expression (immunoblot) ([1]; 1μM PKI, Fig. 2B): did not affect the expression of EA-D
viral reactivation assessed by expression of EA-D, in words [1]: did not inhibit viral reactivation
effect on EBV replication in words [2, 12]: inhibited EBV replication in cells
IC50 ([2]; Akata cells, 48 hours): 2370 nM

COC(=O)[C@@]1(O)C[C@H]2O[C@]1(C)n1c3ccccc3c3c4c(c5c6ccccc6n2c5c31)C(=O)NC4 [K252A]
CC50 [4]: 80 nM
EA-D expression (immunoblot) ([1]; 1μM PKI, Fig. 2B): no EA-D expression was detected
viral reactivation assessed by expression of EA-D, in words [1]: block expression of EBV early protein EA-D
inhibition of GST/EBV-PK activity relative to DMSO [5]: about 75%
TI (therapeutic index, CC50/IC50 ratio) [2]: 6
inhibition of EBV replication relative to DMSO treatment ([2]; 10μM PKI, Akata cells, 48 hours after IgG induction, mean ± sem of 3 experiments): 92±6%
IC50 ([2]; Akata cells, 48 hours): 14 nM

O=C1Cc2c([nH]c3ccc(Br)cc23)-c2ccccc2N1 [Kenpaullone]
IC50 [6]: 681 nM
EA-D expression (immunoblot) ([1]; 1μM PKI, Fig. 2B): did not affect the expression of EA-D
TI (therapeutic index, CC50/IC50 ratio) [2]: 8
effect on EBV replication in words [2, 12]: effective in inhibiting the EBV replication
CC50 at 48 h [7]: 5130 nM

O=c1cc(N2CCOCC2)oc2c(-c3ccccc3)cccc12 [LY 294002]
CC50 [3]: 6160 nM
IC50 [6]: 1840 nM
EA-D expression (immunoblot) ([1]; 1μM PKI, Fig. 2B): intermediate
level of hyperphosphorylated form of EA-D (top band) ([1]; 1μM PKI, Fig. 2B): more pronounced effect on the levels of the hyperphosphorylated form of EA-D
TI (therapeutic index, CC50/IC50 ratio) [2]: 3

CC(C)Nc1nc2cc(Cl)c(Cl)cc2n1[C@H]1O[C@@H](CO)[C@H](O)[C@@H]1O [MBV, maribavir]
effect on EBV replication [8]: inhibits EBV replication
effect on activity of purified EBV-PK [9]: did not inhibit
concentration inhibiting pUL97 autophosphorylation activity ([10]; ref Biron et al., Hamirally et al., 2009): 1 μM

N#CCCn1c2ccccc2c2c3c(c4c5ccccc5[nH]c4c21)C(=O)NC3 [NGIC-I, non-glycosidic indolocarbazole I]
effect on activity of purified EBV-PK [9]: did not inhibit
concentration inhibiting pUL97 autophosphorylation activity ([10]; ref Marschall et al.): 0.5 μM

CO[C@@H]1[C@H](N(C)C(=O)c2ccccc2)C[C@H]2O[C@]1(C)n1c3ccccc3c3c4c(c5c6ccccc6n2c5c31)C(=O)NC4 [PKC-412]
CC50 at 48 h [3]: 56 nM
IC50 [6]: 31 nM
EA-D expression (immunoblot) ([1]; 1μM PKI, Fig. 2B): no EA-D expression was detected
viral reactivation assessed by expression of EA-D, in words [1]: block expression of EBV early protein EA-D
effect on EBV replication in words ([2]; 10μM PKI, Akata cells, 48 hours after IgG induction, listed as PKC412): effective in inhibiting the EBV replication

Cn1cc(C2=C(c3cn(CCCSC(=N)N)c4ccccc34)C(=O)NC2=O)c2ccccc21 [Ro 31-8220]
EA-D expression (immunoblot) ([1]; 1μM PKI, Fig. 2B): did not affect the expression of EA-D
level of hyperphosphorylated form of EA-D (top band) ([1]; 1μM PKI, Fig. 2B): increased level of this form
effect on EBV replication in words [2, 12]: effective in inhibiting the EBV replication
TI (therapeutic index, CC50/IC50 ratio) ([2]; Akata cells, 48 hours): 3
IC50 ([2]; Akata cells, 48 hours): 398 nM
CC50 [11]: 1150 nM

CC(=O)c1c(O)c(C)c(O)c(Cc2c(O)c3c(c(C(=O)/C=C/c4ccccc4)c2O)OC(C)(C)C=C3)c1O [Rottlerin]
CC50 at 48 h [3]: 1000 nM
IC50 [6]: 983 nM
EA-D expression (immunoblot) ([1]; 1μM PKI, Fig. 2B): did not affect the expression of EA-D
effect on EBV replication in words [2, 12]: effective in inhibiting the EBV replication
TI (therapeutic index, CC50/IC50 ratio) ([2]; Akata cells, 48 hours): 1

CN[C@@H]1C[C@H]2O[C@@](C)([C@@H]1OC)n1c3ccccc3c3c4c(c5c6ccccc6n2c5c31)C(=O)NC4 [Staurosporine]
CC50 [3]: 4 nM
viral reactivation assessed by expression of EA-D, in words [1]: block expression of EBV early protein EA-D
effect on EBV replication in words [2, 12]: inhibited viral replication
effect on EBV replication in words ([2]; 10μM PKI, Akata cells, 48 hours after IgG induction, listed as Staurosporin): significantly reduced the EBV genome copy numbers

CC(C)(C)c1cc(C=C(C#N)C#N)cc(C(C)(C)C)c1O [Tyrphostin 9]
EA-D expression (immunoblot) ([1]; 1μM PKI, Fig. 2B): did not affect the expression of EA-D
TI (therapeutic index, CC50/IC50 ratio) ([2]; Akata cells, 48 hours): 3
IC50 ([2]; Akata cells, 48 hours): 217 nM
CC50 [11]: 573 nM

N#CC(=C(/N)Sc1ccccc1N)/C(C#N)=C(/N)Sc1ccccc1N [U-0126]
CC50 [4]: 7380 nM
EA-D expression (immunoblot) ([1]; 1μM PKI, Fig. 2B): did not affect the expression of EA-D
EA-D expression (immunoblot) ([1]; 10μM PKI, Fig. 2A): remain relatively high
viral reactivation assessed by expression of EA-D, in words [1]: did not inhibit viral reactivation
TI (therapeutic index, CC50/IC50 ratio) [2]: 13
effect on EBV replication in words [2, 12]: effective in inhibiting the EBV replication
IC50 ([2]; Akata cells, 48 hours): 552 nM

COC[C@H]1OC(=O)c2coc3c2[C@@]1(C)C1=C(C3=O)[C@@H]2CCC(=O)[C@@]2(C)C[C@H]1OC(C)=O [Wortmannin]
CC50 at 48 h [3]: 4690 nM
IC50 [6]: 367 nM
EA-D expression (immunoblot) ([1]; 1μM PKI, Fig. 2B): no EA-D expression was detected
viral reactivation assessed by expression of EA-D, in words [1]: inhibited EA-D expression
TI (therapeutic index, CC50/IC50 ratio) [2]: 13
effect on EBV replication in words [2, 12]: effective in inhibiting the EBV replication

O=c1c(O)c(-c2ccc(O)c(O)c2)oc2cc(O)cc(O)c12 [quercetin]
effect on EBV replication in words [2, 12]: lack of activity

Source: article PMC3513622 (Antiviral research, 2012)
